Publication PMC9325861, “Mouse precision-cut liver slices as an ex vivo model to study drug-induced cholestasis” (Archives of Toxicology, 2022)
Structures can show the parent of a compound that is named as a salt. Where two headings read alike, the source gives them in different places.

Experiments:
Mrp2 (Abcc2) = assay: qRT-PCR gene expression in mouse PCLS: Mrp2; assay type: cell-based; settings: 48 h, in the presence and absence of BAs
Procedure: (§1) In short, freshly prepared PCLS were transferred to 12-well plates (Greiner bio-one GmbH, Austria), one slice per well. Each well was filled with 1.3 mL pre-heated (37 ℃) and oxygenated (80%) Williams Medium E (1X, glutaMAX-1), which had been supplemented with 25 mM D-glucose monohydrate and 50 μg/ml Gentamicin (denoted as WME GG). […] The DMSO concentration used was below 0.5% in the incubation medium, equivalent to DMSO concentrations in solutions prepared by dilution of BA stock solutions with WME GG.
Three PCLS incubated under a given condition were pooled in a 1.5-mL Rnase-free test tube, snap-frozen in liquid nitrogen, and stored at – 80 °C until analysis. RNA was isolated using a FavorPrep Tissue Total RNA Mini Kit (Favorgen, Vienna, Austria). Subsequently, the RNA yield was quantified using a NanoDrop One instrument (Thermo Fisher Scientific, Massachusetts, USA). Isolated RNA was reverse-transcribed to cDNA using a cDNA synthesis kit (Reverse Transcription System, Promega, Benelux B.V.). […]
qRT-PCR was used to determine the relative mRNA expression levels for the mouse target genes: Bsep (Abcb11), Mrp2 (Abcc2), Mrp3 (Abcc3), Mrp4 (Abcc4), Ntcp (Slc10a1), Fxr (Nr1h4), Cyp7a1 (Cyp7a1), Collagen type 1a1 (Col1a1), Hsp47 (Serpinh1). […] Samples were measured in duplicates. […] Results are expressed as log2(fold change).

Bsep (Abcb11) = assay: qRT-PCR gene expression in mouse PCLS: Bsep; assay type: cell-based; settings: 48 h
Procedure: (§2) In short, freshly prepared PCLS were transferred to 12-well plates (Greiner bio-one GmbH, Austria), one slice per well.
(§3) Three PCLS incubated under a given condition were pooled in a 1.5-mL Rnase-free test tube, snap-frozen in liquid nitrogen, and stored at – 80 °C until analysis. RNA was isolated using a FavorPrep Tissue Total RNA Mini Kit (Favorgen, Vienna, Austria). Subsequently, the RNA yield was quantified using a NanoDrop One instrument (Thermo Fisher Scientific, Massachusetts, USA). Isolated RNA was reverse-transcribed to cDNA using a cDNA synthesis kit (Reverse Transcription System, Promega, Benelux B.V.). The cDNA samples were subsequently loaded in the thermal cycler with a program set to 22 °C for 10 min, 42 °C for 15 min, and 95 °C for 5 min.
(§4) qRT-PCR was used to determine the relative mRNA expression levels for the mouse target genes: Bsep (Abcb11), Mrp2 (Abcc2), Mrp3 (Abcc3), Mrp4 (Abcc4), Ntcp (Slc10a1), Fxr (Nr1h4), Cyp7a1 (Cyp7a1), Collagen type 1a1 (Col1a1), Hsp47 (Serpinh1). Primer sequences of the genes tested are given in Supplementary Table S1. QRT-PCR was performed using, the dye, FastStart Universal SYBR Green Master Mix (Roche Diagnostics Netherlands B.V., Almere, the Netherlands) with the ViiA™ 7 Real-Time PCR System (Applied Biosystems, Bleiswijk, the Netherlands). The first cycle constituted 10 min at 95 °C, followed by 40 cycles of 15 s at 95 °C, 30 s at 60 °C and 30 s at 72 °C, followed by 1 cycle dissociation stage (15 s: 95 °C, 60 °C and 95 °C). A minimum of four mouse livers was used for each experiment, using three PCLS per condition. Samples were measured in duplicates. […] Results are expressed as log2(fold change).

Ntcp (Slc10a1) = assay: qRT-PCR gene expression in mouse PCLS: Ntcp; assay type: cell-based; settings: 48 h
Procedure: as §1, §3, §4

[1] = tested on: Collagen type 1a1 (Col1a1); assay: qRT-PCR gene expression in mouse PCLS: Col1a1; assay type: cell-based; settings: 48 h
Procedure: as §1, §3, §4

Bsep = assay: Western blot of Bsep protein in mouse PCLS; assay type: cell-based; settings: 48 h
Procedure: as §2
In brief, the protein was extracted from three slices per treatment, and protein samples were denatured (75 °C for 10 min). […] Gels were blotted onto 0.2-μm polyvinylidene fluoride membranes using a Trans-Blot Turbo Transfer System (Bio-Rad, Munich, Germany), set to ramp up to 25 V in 15 min, at a constant current of 2.5 A. Membranes were then treated for 1 h with a protein blocking agent to prevent non-specific binding of antibodies, and incubated at 4 °C overnight with Bsep primary antibody (monoclonal antibody rabbit anti-Bsep, 1:2500, Tebu-Bio, Le Perray-en-Yvelines, France), Ntcp primary antibody (polyclonal antibody, rabbit anti-Ntcp, 1:2000, Tebu-Bio), and vinculin (116 kDa) primary antibody (monoclonal antibody, mouse anti-Vinculin, 1:500, Santa Cruz, California, USA). The following day, membranes were incubated with matching secondary antibodies for 1 h (Goat anti-rabbit HRP (Bsep and Ntcp), 1:2000; Rabbit anti-mouse HRP (vinculin), 1:5000, Dako, Santa Clara). Proteins were then visualized by adding Clarity Western ECL blotting substrate (Bio-Rad, Munich, Germany) and using a ChemiDoc Touch Imaging System (BioRad, Munich, Germany) for imaging of the resulting chemiluminescence. Afterward, Bsep and Ntcp expression was normalized by vinculin expression.

mouse PCLS = assay: Viability of mouse PCLS by ATP content (ATP bioluminescence, normalized to protein); assay type: cell-based; settings: for IC50 / CC50: Mus musculus; for IC 5% (best-fit) / IC 25% (best-fit): Table S3, unit not given; for Enhancement of drug toxicity by addition of the BA mixture: extra sum of squares F-test of fits with vs w/o BA
Procedure: as §1
ATP was extracted by homogenization, followed by the centrifugation of the homogenate (16,000g at 4 °C for 5 min). The supernatant was collected, and the pellet was left to dry. An ATP Bioluminescence Assay Kit (Roche Diagnostics, Mannheim, Germany) was used to determine ATP content in the supernatant. The dried pellet was used to determine the total protein content of the PCLS using the Bio-Rad DC Protein Assay (Bio-Rad, Munich, Germany). The obtained ATP values were then normalized for the total protein content of the slice.
A minimum of three mouse livers was used for each experiment, using PCLS in triplicate from each liver. GraphPad Prism 8.4.3 was used to perform statistical analysis, using a Student’s unpaired two-tailed T-test to compare two means, or a one-way ANOVA to compare multiple means. One-way ANOVA was followed by either Tukey’s multiple comparisons test to compare all means within a dataset, or Dunnett’s multiple comparisons test to compare all means with their own control mean. Nonlinear regression analysis was followed by an extra sum of squares F-test to compare two fits. mRNA expression levels are shown as Log2(fold induction) (− ΔΔCt), though the data was statistically analyzed using the cycle threshold (ΔCt) values. Differences between groups were considered significant when p < 0.05.

rat PCLS = tested on: rat PCLS; parameters: method as in Starokozhko et al. [2017a]; settings: in the presence of BAs, ref Starokozhko et al. [2017a]; cited from earlier work
[2] = BAs present, highest concentration of CPZ, lowest concentration of GB
[3] = non-toxic concentration (CPZ 15 μM, CSA 1 μM, GB 25 μM), vs control with no drug and no BAs

CN(C)CCCN1c2ccccc2Sc2ccc(Cl)cc21 [CPZ, Chlorpromazine hydrochloride]
Mrp2 gene expression (Mrp2 (Abcc2)): reduces | Bsep gene expression (Bsep (Abcb11); in the presence and absence of BAs, vs control without drug): reduces | Ntcp gene expression (Ntcp (Slc10a1); [2]): increase the expression of Ntcp significantly | Col1a1 gene expression ([1]; in the absence of BAs, highest concentration of CPZ): significant increase | Col1a1 gene expression ([1]; in the presence of BAs, highest concentration (30 µM CPZ)): significantly increased | Bsep protein expression (western blot band intensity) (Bsep; non-toxic concentration (CPZ 15 μM, CSA 1 μM), in the presence of the BA mixture): less pronounced | Bsep protein expression (western blot band intensity) (Bsep; [3]): significant decrease in band intensity | IC50 (mouse PCLS; 48 h, read-out: IC 50% (best-fit), Table S3, mouse PCLS, 48 h, w/o BA, unit not printed in table (µM in Fig. 4)): 29.1 µM | IC50 (mouse PCLS; 48 h, read-out: IC 50% (best-fit), Table S3, mouse PCLS, 48 h, with BA, unit not printed in table (µM in Fig. 4)): 21.6 µM | IC50 (mouse PCLS; 48 h, read-out: IC50 (50% loss in viability, ATP content), mouse PCLS, 48 h, one value or range given for with and w/o BA): 22 to 29 µM | CC50 (mouse PCLS; 48 h, read-out: IC50 (50% loss in viability, ATP content), mouse PCLS, 48 h, w/o BA mixture): 29 µM | CC50 (mouse PCLS; 48 h, read-out: IC50 (50% loss in viability, ATP content), mouse PCLS, 48 h, with BA mixture): 22 µM | IC 5% (best-fit) (mouse PCLS; 5% decrease in ATP content, 48 h, w/o BA): 15.4 | IC 5% (best-fit) (mouse PCLS; 5% decrease in ATP content, 48 h, with BA): 11.4 | IC 25% (best-fit) (mouse PCLS; 25% decrease in ATP content, 48 h, w/o BA): 22.9 | IC 25% (best-fit) (mouse PCLS; 25% decrease in ATP content, 48 h, with BA): 17.0 | Enhancement of drug toxicity by addition of the BA mixture (mouse PCLS; mouse PCLS, 48 h): enhanced the toxicity of CPZ considerably | Concentration reaching severe toxicity (rat PCLS): 36 µM

COc1ccc(Cl)cc1C(=O)NCCc1ccc(S(=O)(=O)NC(=O)NC2CCCCC2)cc1 [GB, Glibenclamide]
Mrp2 gene expression (Mrp2 (Abcc2)): increases the expression of Mrp2 | Bsep gene expression (Bsep (Abcb11); 25 µM GB, when BAs are present): increases | Bsep gene expression (Bsep (Abcb11); 65 μM GB, when BAs are present): decreases Bsep expression significantly | Ntcp gene expression (Ntcp (Slc10a1); [2]): increase the expression of Ntcp significantly | Ntcp gene expression (Ntcp (Slc10a1); in the absence of BAs): decrease the Ntcp expression | Col1a1 gene expression ([1]; both with and without BAs present): reduced Col1a1 expression in a concentration-dependent manner | Bsep protein expression (western blot band intensity) (Bsep; [3]): did not induce any significant changes | IC50 (mouse PCLS; 48 h, read-out: IC50 (50% loss in viability, ATP content)): 70 µM | IC50 (mouse PCLS; read-out: IC 50% (best-fit)): 69.7 µM | IC 5% (best-fit) (mouse PCLS; IC the same with and w/o BA): 37.9 | IC 25% (best-fit) (mouse PCLS; IC the same with and w/o BA): 55.5 | Enhancement of drug toxicity by addition of the BA mixture (mouse PCLS; mouse PCLS, 48 h): not observed | Concentration reaching severe toxicity (rat PCLS): 180 µM
